Reference: patent US9359322B2, “C-linked glucuronide of N-(4-hydroxybenzyl) retinone, analogs thereof, and methods of using the same to inhibit neoplastic cell growth” (Wisconsin Alumni Research Foundation, priority 2005, dated 2016)
Marks after values point to notes of the source that are not given here.

How the values were obtained:
[1] = cited from earlier work
[2] = system: DMBA-induced rat mammary tumor; conditions: cited from earlier work
[3] = target: serum retinol-binding protein, RBP (Homo sapiens, UniProt P02753); conditions: cited from earlier work
[4] = vitamin A-deficient rats; cited from earlier work
[5] = Terminal plasma drug levels (plasma retinoid assay, HPLC); format: in vivo, rat; conditions: day 22 of treatment; 2 mmol/kg diet; ± SEM
Protocol: (§1) Plasma Retinoid Assay. To 500 μL of plasma was added 150 μL of ethanol containing 0.75 μg of internal standard (N-(4-chlorophenyl) retinamide). After mixing 30 sec., 500 μL of ethyl acetate was added followed by 1 min. of mixing and centrifugation for 5 minutes at 1000 rpm in an IEC CL centrifuge. The ethyl acetate layer was removed and syringe filtered through a 0.45 um filter. The ethyl acetate extraction was repeated two more times. The combined extracts were evaporated and the residue reconstituted in 100 μL of methanol. The methanol extract (20 μL) was analyzed by HPLC on a Beckman Instruments model 127 instrument equipped with a model 166 UV detector. Chromatography was done on a precolumn equipped 250×4.6 mm Bechman Ultrasphere ODS column with an 85% methanol/water mobile phase (both containing 10 mM ammonium acetate) flowing at 1 mL/min. Analysis for both internal standard and retinol was conducted at 350 nm and internal standard recoveries and retinol levels were determined by comparison with standard curves, with adjustment of the retinol level based on recovery. Recoveries of internal standard averaged ca. 78%. […] In the 4-HPR treated group, plasma levels of this retinoid were evaluated simultaneously in the same samples as above. In order to avoid interfering substances, plasma treatment retinoid levels for RA and 4-HBRCG were measured using the above system and a step gradient of 75% methanol for 15 min. followed by 85% methanol for 40 minutes.

[6] = system: CYP26B1 mRNA; conditions: vitamin A-deficient rats; background; cited from earlier work
[7] = target: T1, RARβ (Homo sapiens, UniProt P10826); conditions: cited from earlier work
T1 sequence (P10826 1-455): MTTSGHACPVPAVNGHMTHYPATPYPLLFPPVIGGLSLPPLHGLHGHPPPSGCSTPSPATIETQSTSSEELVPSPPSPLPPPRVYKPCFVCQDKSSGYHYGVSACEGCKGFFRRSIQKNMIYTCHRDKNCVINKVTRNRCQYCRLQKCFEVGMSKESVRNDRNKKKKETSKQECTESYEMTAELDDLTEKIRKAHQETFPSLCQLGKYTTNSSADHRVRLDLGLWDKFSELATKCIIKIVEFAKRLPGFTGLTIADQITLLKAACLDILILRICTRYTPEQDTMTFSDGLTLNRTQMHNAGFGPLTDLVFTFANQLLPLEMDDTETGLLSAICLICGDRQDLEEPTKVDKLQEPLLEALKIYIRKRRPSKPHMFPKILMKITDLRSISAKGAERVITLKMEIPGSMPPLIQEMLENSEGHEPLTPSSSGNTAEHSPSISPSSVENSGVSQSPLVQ

[8] = Plasma retinol level (HPLC); format: in vivo, rat; conditions: 2 mmol/kg diet
Protocol: (§2) Baseline measurement of initial tumor sizes, numbers and rat body weights were determined immediately before commencement of treatments, and final measurements were recorded just prior to sacrifice of the animals. Animals were palpated for tumors twice weekly and tumor diameters were measured weekly by a micrometer caliper. Tumor volumes were calculated using the formula [V= 4/3 πr^3] where r is one-half the mean of the sum of the largest diameter and the axis at right angle to it. All tumors as well as lungs, liver, kidney and femur were excised at the end of the experiment for chemical and histopathological evaluation. Blood samples were also taken from each animal for determination of plasma retinol and triglyceride levels.
as §1

[9] = system: DMBA-induced rat mammary tumor; assay: DMBA-induced rat mammary tumor model, retinoid-containing diets; format: in vivo
Protocol: Preliminary evaluation of the mammary tumor chemotherapeutic activity of 4-HBRCG (7) was conducted, and its toxicity profile was also assessed. As previously described,^7, 12 tumor-bearing female rats (treated ca. 50 days earlier with 7,12-dimethylbenz(a)anthracene [DMBA]) were fed the control or retinoid-containing diets (RA (2), 4-HPR (3) or 4-HBRCG (7)) at 2 mmole/kg diet for 22 days.
(§3) Animal Studies: Mammary tumors were induced by intragastric intubation of 50-day old female Sprague-Dawley rats (Harlan Industries, Indianapolis, Ind.) with a single dose of 15 mg DMBA in 1.0 ml of sesame oil per rat. The rats were then maintained on a powdered Teklad 22/5 rodent chow diet (W) 8640 (Harlan Industries, Indianapolis, Ind.), and allowed food and water ad libitum. Four months later, rats which had developed palpable tumors were randomly assigned to the experimental groups (4 rats/group). The retinoid-treated groups were fed diets supplemented with 2 mmol/kg diet of atRA, 4-HPR, or 4-HBRCG, respectively. The retinoids were added to the diet in a vehicle consisting of 25 ml of ethanol: tricaprylin (1:4 v/v) plus 2% (w/v) of α-tocopherol as previously described.^9 This vehicle was also added to the control diet. The additives were blended into the chow diets using a Hobart food mixer. The diets were fed in stainless steel feeders designed with food hoppers. The food was replaced weekly with freshly prepared diets. Food consumption was determined once weekly, and from that the average daily consumption/rat was estimated. These diets were continuously fed for 22 days. Animals were also weighted weekly and monitored for general health status and signs of possible toxicity due to treatment.
as §2

[10] = Plasma triglyceride measurement; format: in vivo, rat; conditions: 2 mmol/kg diet, 22 days; FIG. 2A
Protocol: Plasma Triglyceride Measurement. Bloods were drawn from anesthetized animals in the presence of EDTA as an anticoagulant, and the resulting plasma was used for the measurement of plasma “true” triglyceride levels using a kit from Sigma-Aldrich (Saint Louis, Mo.). Briefly, the total plasma triglyceride and glycerol concentrations were determined, and the glycerol component was subtracted from the total plasma triglyceride measurement to obtain the “true” serum triglyceride concentration.

[11] = Body weight change during retinoid feeding; format: in vivo, rat; conditions: relative to baseline body weight over 22 days; 2 mmol/kg diet
Protocol: as §3, §2

[12] = system: CYP26A1 mRNA; assay: Induction of CYP26A1 mRNA in liver (Q-PCR); format: in vivo, rat; conditions: at sacrifice, retinoid-fed rats, 2 mmol/kg diet; FIG. 4
[13] = system: CYP26B1 mRNA; assay: Induction of CYP26B1 mRNA in lung (Q-PCR); format: in vivo, rat; conditions: at sacrifice, retinoid-fed rats, 2 mmol/kg diet; data not shown
[14] = Femur bone mineral content; format: in vivo, rat; conditions: end of feeding study; FIG. 2B
From the text: Bone Mineral Content. The femur was disarticulated from the leg, and the adhering soft tissue was removed by dissection. Femurs were scanned using the Lunar PIXImus 2 system (Model X2608, General Electric using the LUNAR software version 1.45), and control measurements were made using the small animal quality control phantom. Femurs were scanned 5 times each with re-positioning at each measure. The average value of the bone mineral content (BMC) in grams for each animal is reported as one independent measure.

[15] = target: T2, RARγ (Homo sapiens, UniProt P13631); conditions: cited from earlier work
T2 sequence (P13631 1-454): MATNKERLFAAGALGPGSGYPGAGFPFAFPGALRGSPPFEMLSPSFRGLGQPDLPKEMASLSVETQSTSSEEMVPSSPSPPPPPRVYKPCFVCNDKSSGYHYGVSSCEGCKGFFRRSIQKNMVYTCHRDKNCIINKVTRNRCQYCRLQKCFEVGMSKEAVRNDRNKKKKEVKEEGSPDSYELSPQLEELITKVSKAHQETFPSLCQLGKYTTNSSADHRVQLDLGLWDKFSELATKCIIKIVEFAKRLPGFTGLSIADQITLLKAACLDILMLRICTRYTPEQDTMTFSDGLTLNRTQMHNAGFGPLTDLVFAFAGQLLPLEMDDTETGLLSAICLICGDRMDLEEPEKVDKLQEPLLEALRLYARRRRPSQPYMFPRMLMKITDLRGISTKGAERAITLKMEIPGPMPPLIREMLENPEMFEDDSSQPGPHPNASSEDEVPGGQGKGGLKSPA

[16] = background statement; cited from earlier work
[17] = number of individual tumors, 2 mmol/kg diet, 22 days

CC1=C(/C=C/C(C)=C/C=C/C(C)=C/C(=O)Cc2ccc(O)cc2)C(C)(C)CCC1 [4-HBR, 4-hydroxybenzyl retinone]
Effect on blood retinol levels [1]: does not lower blood retinol levels | Chemotherapeutic activity in DMBA-induced rat mammary tumor model [2]: equiactive chemotherapeutics | Binding to RBP [3]: equivalent binding to RBP

CC1=C(/C=C/C(C)=C/C=C/C(C)=C/C(=O)Nc2ccc(O)cc2)C(C)(C)CCC1 [4-HPR (3), N-(4-hydroxyphenyl) retinamide]
Hydrolysis to liberate retinoic acid [4]: is hydrolyzed to liberate retinoic acid | Plasma retinoid concentration (terminal plasma drug level) [5]: 0.67 ± 0.07 µg/mL | Induction of CYP26B1 mRNA expression in lungs [6]: induces CYP26B1 mRNA expression in a RA-like manner | Times less potent than atRA in competing for [3H]atRA binding to RARβ [7]: ~3000 times | Effect on blood retinol [8]: the same amount of 4-HPR did | Plasma retinol ([8]; day 22 of treatment, mean ± SEM): 0.21 ± 0.05 ^e μg/ml | % Change in tumor volume from baseline ([9]; 2 mmol/kg diet for 22 days): −33 ^d % | Final tumor volume ([9]; 2 mmol/kg diet for 22 days, mean ± SEM): 0.08 ± 0.02 cm^3 | Initial tumor volumes ([9]; baseline before treatment, mean ± SEM): 0.12 ± 0.03 cm^3 | Complete regression (tumors that totally disappeared) [9, 17]: 1 | No effect [9, 17]: 3 | Partial regression (tumors with 25-75% decrease in volume) [9, 17]: 15 | New tumors ([9]; number of tumors, 2 mmol/kg diet, 22 days): 0 | Effect on serum triglyceride concentration [10]: small but insignificant increase | % Weight change [11]: +3% | Induction of CYP26A1 mRNA in liver [12]: 37 fold above control | Induction of CYP26B1 mRNA in lung [13]: 20 fold above control | Effect on femur bone mineral content vs control [14]: showed no such effect | Times less able than atRA to compete for binding to RARγ [15]: 2500 times | Chemotherapeutic activity in DMBA-induced rat mammary tumor model [2]: equiactive chemotherapeutics | Teratogenicity relative to RA [16]: 100 times less teratogenic than RA | Binding to RBP [3]: equivalent binding to RBP
